Results: patent US11001872B2, “Designing customized protein-specific buffer system” (priority 2015, dated 2021)
Like-named read-outs stand apart in the source and are kept apart here. One block for each molecule: values may come before it.

Tests used:
[1] = test system: Tryptophan hydroxylase (TH); details: cited from earlier work; for effect of buffer on TH stability: tested at same pH and salt concentration; for effect on TH melting temperature: buffer of 20 mM HEPES/NaOH and 100 mM (NH4)2SO4 (pH 7.0)
Dwarf27 protein = biological target: T1, Dwarf27 protein (Oryza sativa subsp. japonica, UniProt C7AU21); assay: Dwarf27 protein stability screen in MES-BTP buffer mixture (melting point temperature); type: physicochemical; details: for concentration for customized buffer system for Dwarf27: MES-BTP, Spyro Orange; for effect on protein Tm as compared to the control Tm: Dwarf27 (D27), concentration screen, FIG. 16
T1 sequence (C7AU21 41-278): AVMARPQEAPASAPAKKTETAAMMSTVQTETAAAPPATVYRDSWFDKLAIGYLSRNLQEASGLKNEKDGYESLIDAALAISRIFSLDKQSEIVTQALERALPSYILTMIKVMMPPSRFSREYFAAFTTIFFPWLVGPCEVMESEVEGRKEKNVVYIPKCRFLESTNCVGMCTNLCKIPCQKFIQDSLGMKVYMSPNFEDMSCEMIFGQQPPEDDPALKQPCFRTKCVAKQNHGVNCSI
Description: Many methods have been used to describe protein stability. A primary method of early literature was the urea degradation study. As a point of comparative reference to this early literature, the present invention maintains a concentration dependent measure of protein stability relative to urea concentration. […] See, FIG. 16A. […] See, FIG. 16B.
See, FIG. 17A. In one embodiment, the present invention contemplates a multi-component single buffer mixture characterized by: i) a low delta specific heat (CP); ii) low buffer-buffer interactions; iii) low divalent cation chelation; and iv) buffering capacity over a wide pH range. In one embodiment, the multi-component single buffer mixture comprises MES and BTP. See, FIG. 17B. […] The optimal pH for Dwarf27 protein was determined by other methods to be pH 7.5 (data not shown).
Data was collected using a Spyro Orange fluorophore.
The integrated analysis compared the differences in inflection points of these protein melting temperature point screens to identify Dwarf27 protein melting point profiles. See, FIG. 19.

protein sample [2] = assay: Protein stability screen: protein melting point temperature in MES/BTP buffer mixture; type: physicochemical
Description: In one embodiment, the present invention contemplates a method comprising a physiologic buffer mixture having a temperature-stable pKa to identify test compounds that increase stability of a sample protein by performing a protein melting point temperature screen. […] Although it is not necessary to understand the mechanism of an invention it is believed that a protein stability screen acts to define the bulk properties of a solution system (i.e. impact of pH, ionic strength, buffer etc.) and not just one specific component like most of the other screening conditions. The buffer system also acts as an internal control that simultaneously compares new and old conditions under identical conditions. Although commonly used previously, a urea stability test provides validation and verification of all testing parameters by comparative analysis with historical literature. DMSO screening allows for the nomination of conditions where protein compounds are usually insoluble (e.g., for example, drug binding studies) to identify the proper use of DMSO to solubilize these compounds without effecting the performance of the intended assay.
See, FIG. 1. […] See, FIG. 3. […] See, FIG. 4. […] See, FIG. 5. […] See, FIG. 6.
A metal ion screen was performed that compared the relative effects of five (5) different metal chloride ions, each at two different concentrations. See, FIG. 7. […] See, FIG. 8.
In one embodiment, the kit instructions comprise the following steps: • i) pre-chill the RT-PCR plate at 4° C. for 15-30 minutes prior to the addition of reagents and/or protein sample to each of the wells. • ii) The dye vial and kit plates should be stored at −20° C. and away from light until the time of use. • iii) Add 5 μl of dye to 500 μl of protein sample. The dye to protein ratio can be modified to any particular protein. For example, smaller proteins or proteins with a small hydrophobic core may require an increased dye concentration. • iv) Transfer 5 μl of each solution from the well plate to a corresponding well of the RT-PCR plate. • v) Add 5 μl of the protein/dye mixture to each well of the RT-PCR plate (>0.5 mg/ml). • vi) Mix the solutions by pipetting up and down (˜5 times). • a) gently placing all solutions at the bottom of the avoids subsequent plate centrifugation. • vii) Seal the RT-PCR plate. • viii) Immediately load the TR-PCR plate into the instrument and begin the programmed heating schedule (approximate timeframe=62 minutes), for example: • a) Heat to 20 C • b) Ramp to 90 C in 0.5 C increments. • c) Ramp to 4 C with a two minute schedule. • ix) Upload stored data file to a designated website (e.g., for example, caymanchem.com/deltatm) and follow the instructions.

[3] = Kipp et al., cited from earlier work; for ΔpH=pH(60° C.)−pH(25° C.): 0.1 M, initial pH=7 (25° C.), PHTEMP simulation
protein sample [4] = assay: Cryoprotection protein melting point temperature screen; type: physicochemical
Description: For example, a protein melting point temperature screen was performed using sucrose at several different concentrations. […] See, FIG. 10. […] See, FIG. 11. […] See, FIG. 12.
Conversely, the present method can also identify compounds that might not be expected to provide quality cryoprotectant effects. For example, glycerol is widely accepted to provide cryoprotection. […] See, FIG. 13. […] This is opposite to what one would expect for an indicative parameter to identify a quality cryoprotectant. […] Although it is not necessary to understand the mechanism of an invention, it is believed that the use of such an improved cryoprotectant improves stability for nearly two years. […] See, FIG. 14.

[5] = Hoefmeister Series screen, higher Tm
[6] = cryoprotection screen, dose response

Compound: OCC(CO)(CO)NCCCNC(CO)(CO)CO [Bis Tris Propane]
effect of buffer on TH stability [1]: no significant effect on stability

concentration for customized buffer system for Dwarf27 (Dwarf27 protein): 7%
Compound: C[S+](C)[O-] [DMSO, dimethyl sulfoxide]
effect on protein melting point temperature (protein sample [2]; buffer mixture of MES and BTP, concentration screen): consistently increased protein melting point temperatures

Compound: O=S(=O)(O)CCN1CCN(CCO)CC1 [HEPES, 4-(2-hydroxyethyl)-1-piperazine ethanesulfonic acid]
effect of buffer on TH stability [1]: no significant effect on stability

Compound: O=S(=O)(O)CCCN1CCOCC1 [MOPS, 3-(N-morpholino)propanesulfonic acid]
effect of buffer on TH stability [1]: no significant effect on stability

concentration for customized buffer system for Dwarf27 (Dwarf27 protein): 100 mM
Compound: O=S(=O)(O)CCN1CCN(CCS(=O)(=O)O)CC1 [PIPES, piperazine-N,N′-bis(2-ethanesulfonic acid]

Compound: CC(=O)O [acetic acid]
ΔpH=pH(60° C.)−pH(25° C.) [3]: approximately 0 | ΔH zero (enthalpy of acid dissociation) [3]: -0.1 kcal/mol

Compound: Cl.N [ammonium chloride]
effect on protein stability (Tm) (protein sample [2]; [5]): improved the stability of the protein

Compound: N.N.O=S(=O)(O)O [ammonium sulphate]
effect on protein Tm as compared to the control Tm (Dwarf27 protein): concentration-dependent increase in protein Tm

Compound: O.O.[Ca+2].[Cl-].[Cl-] [calcium chloride dihydrate]
effect on protein stability (Tm) (protein sample [2]): improved the stability of the protein

Compound: [Cl][Co][Cl] [cobalt chloride]
concentration for customized buffer system for Dwarf27 (Dwarf27 protein): 0.005 to 0.025 mM

Compound: OCCO [ethylene glycol]
effect on protein melting point temperature (protein sample [4]; [6]): dose-dependent decrease in protein melting point temperatures

Compound: N[C@@H](CCC(=O)O)C(=O)O [glutamic acid]
concentration for customized buffer system for Dwarf27 (Dwarf27 protein): 25 mM

concentration for customized buffer system for Dwarf27 (Dwarf27 protein): 2.5% | effect on protein melting point temperature (protein sample [2]; MES/BTP, glycerol concentrations above 10%): raised the protein melting temperature
Compound: OCC(O)CO [glycerol]
effect on protein melting point temperature (protein sample [4]; [6]): dose-dependent decrease in protein melting point temperature | effect on protein melting point temperature (protein sample [2]; MES/BTP, glycerol concentrations below 10%): lowered the protein melting point temperature | effect on TH melting temperature [1]: increased melting temperature

Compound: Cl.N=C(N)N [guanidinium hydrochloride]
effect on protein stability (Tm) (protein sample [2]; [5]): improved the stability of the protein

Compound: [Cl-].[Li+] [lithium chloride]
effect on protein stability (Tm) (protein sample [2]; [5]): improved the stability of the protein

Compound: [Cl-].[K+] [potassium chloride]
effect on protein stability (Tm) (protein sample [2]; [5]): improved the stability of the protein

Compound: CC(=O)[O-].O.O.O.[Na+] [sodium acetate trihydrate]
effect on protein stability (Tm) (protein sample [2]): improved the stability of the protein

Compound: O=C([O-])CC(O)(CC(=O)[O-])C(=O)[O-].[Na+].[Na+].[Na+] [sodium citrate tribasic]
effect on protein stability (Tm) (protein sample [2]): improved the stability of the protein

Compound: [F-].[Na+] [sodium fluoride]
effect on protein stability (Tm) (protein sample [2]; [5]): improved the stability of the protein

Compound: [I-].[Na+] [sodium iodide]
effect on protein stability (Tm) (protein sample [2]; [5]): improved the stability of the protein

Compound: O=[N+]([O-])[O-].[Na+] [sodium nitrate]
effect on protein stability (Tm) (protein sample [2]; [5]): improved the stability of the protein

concentration for customized buffer system for Dwarf27 (Dwarf27 protein): 50 mM | effect on protein stability (Tm) (protein sample [2]; [5]): improved the stability of the protein
Compound: O=P([O-])([O-])O.[Na+].[Na+] [sodium phosphate dibasic]

Compound: O.O.O.O.O.O.O.O.O.O.O=S(=O)([O-])[O-].[Na+].[Na+] [sodium sulphate decahydrate]
effect on protein stability (Tm) (protein sample [2]): improved the stability of the protein

effect on protein stability (Tm) (protein sample [2]; [5]): improved the stability of the protein
Compound: O=C([O-])C(O)C(O)C(=O)[O-].[Na+].[Na+] (stereo not drawn) [sodium tartrate dibasic]

Compound: N#C[S-].[Na+] [sodium thiocynate]
effect on protein stability (Tm) (protein sample [2]; [5]): improved the stability of the protein

Compound: OC[C@@H](O)[C@@H](O)[C@H](O)[C@@H](O)CO [sorbitol]
effect on TH melting temperature [1]: increased melting temperature

effect on protein melting point temperature (protein sample [4]; 25% sucrose and 30% sucrose): raised the melting point temperature
Compound: OC[C@H]1O[C@@](CO)(O[C@H]2O[C@H](CO)[C@@H](O)[C@H](O)[C@H]2O)[C@@H](O)[C@@H]1O [sucrose]
effect on TH melting temperature [1]: increased melting temperature

Compound: O=S(=O)(O)O [sulfuric acid]
ΔpH=pH(60° C.)−pH(25° C.) [3]: approximately −0.4 | ΔH zero 1 [3]: -12 kcal/mol | ΔH zero 2 [3]: -5.4 kcal/mol

increase in protein melting temperature relative to sucrose (protein sample [4]; cryoprotection screen): more pronounced than sucrose
Compound: OC[C@H]1O[C@H](O[C@H]2O[C@H](CO)[C@@H](O)[C@H](O)[C@H]2O)[C@H](O)[C@@H](O)[C@@H]1O [trehalose]

Compound: CCN(CC)CC [triethylamine]
ΔpH=pH(60° C.)−pH(25° C.) [3]: approximately −0.8 | ΔH zero (enthalpy of acid dissociation) [3]: 10.4 kcal/mol

effect on protein Tm as compared to the control Tm (Dwarf27 protein): generalized decreases in protein Tm | effect on protein (protein sample [2]; MES/BTP, urea concentrations in excess of 1.75 M, no melting point determinable): complete protein denaturation | effect on protein melting point temperature (protein sample [2]; MES/BTP, urea under 0.5 M or between 0.75-1.75 M): lower protein melting point temperatures
Compound: NC(N)=O [urea]

Compound: OC[C@@H](O)[C@H](O)[C@@H](O)CO [xylitol]
effect on protein melting temperature in comparison to sucrose or trehalose (protein sample [4]; e.g. 30%): raised the protein melting temperature a full degree
